Reference: PubChem BioAssay (NCI)
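Where inhibition never reached the appropriate level, the endpoint shown equals the highest concentration tested. Otherwise, values were interpolated linearly from a five-concentration, 48-hour dose response in 96-well plates. GI50: concentration for 50% inhibition of growth. TGI: concentration producing complete growth inhibition.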

Legend:
Test in all cases: NCI-60 cell line screen, 48 h
CCRF-CEM leukemia = tested on: CCRF-CEM leukemia
HOP-92 NSCLC = tested on: HOP-92 NSCLC
LOX IMVI melanoma = tested on: LOX IMVI melanoma
NCI-H226 lung = tested on: NCI-H226 lung
SK-MEL-5 melanoma = tested on: SK-MEL-5 melanoma
UACC-257 melanoma = tested on: UACC-257 melanoma
UO-31 renal = tested on: UO-31 renal
NCI-H522 lung = tested on: NCI-H522 lung
SF-295 CNS = tested on: SF-295 CNS
SK-OV-3 ovarian = tested on: SK-OV-3 ovarian

| SMILES | TGI (CCRF-CEM leukemia) [µM] | TGI (HOP-92 NSCLC) [µM] | TGI (LOX IMVI melanoma) [µM] | TGI (NCI-H226 lung) [µM] | TGI (SK-MEL-5 melanoma) [µM] | TGI (UACC-257 melanoma) [µM] | TGI (UO-31 renal) [µM] | GI50 (CCRF-CEM leukemia) [µM] | GI50 (LOX IMVI melanoma) [µM] | GI50 (NCI-H226 lung) [µM] | TGI (NCI-H522 lung) [µM] | TGI (SF-295 CNS) [µM] | TGI (SK-OV-3 ovarian) [µM] | GI50 (UO-31 renal) [µM] | GI50 (NCI-H522 lung) [µM] | GI50 (SF-295 CNS) [µM] | GI50 (SK-MEL-5 melanoma) [µM] | GI50 (SK-OV-3 ovarian) [µM] | GI50 (UACC-257 melanoma) [µM] | GI50 (HOP-92 NSCLC) [µM] |
| --- | --- | --- | --- | --- | --- | --- | --- | --- | --- | --- | --- | --- | --- | --- | --- | --- | --- | --- | --- | --- |
| CC(C)OP(=O)(OC(C)C)C(=NCCN=C(NNc1ccc([N+](=O)[O-])cc1)P(=O)(OC(C)C)OC(C)C)NNc1ccc([N+](=O)[O-])cc1 | > 100 | 8.82 | > 100 | 93.3 | > 100 | > 100 | > 100 |  |  |  |  |  |  |  |  |  |  |  |  |  |
| O=C(/C=C\c1ccc(Cl)c(Cl)c1)c1ccc(Cl)cc1Cl | 64.4 |  | 18.2 | 21.2 | 30.8 | 36.5 | > 100 | 4.62 | 2.05 | 6.39 | 32.6 | 47.1 | 51 | > 100 |  |  |  |  |  |  |
| O=S(=O)(CCn1c(Sc2ccccc2)c(Sc2ccccc2)c2ccccc21)c1ccccc1 | > 100 |  | > 100 | > 100 | > 100 |  | > 100 |  |  |  | > 100 | > 100 | > 100 |  |  |  |  |  |  |  |
| CC(=O)OC1COC(n2ccc3cc(Br)c([N+](=O)[O-])cc32)C(OC(C)=O)C1OC(C)=O (configuration not stated) | 81.7 | 42 | 40.7 | 43.9 |  | 52 | 42.8 |  |  |  |  | 66.7 | > 100 |  |  |  |  |  |  |  |
| CN(C)c1ccc(/C=C(\NC(=O)c2ccccc2)c2nc3ncncc3[nH]2)cc1 | > 100 | > 100 |  |  | > 100 |  | > 100 |  |  |  | > 100 | > 100 | > 100 |  |  |  |  |  |  |  |
| O=c1c2sccc2n(CC2COc3ccccc3O2)c(=O)n1O (configuration not stated) | 94.4 |  | > 100 | 83.6 | 61.1 | > 100 | 97.5 | 7 | 6.45 | 24.6 | > 100 | > 100 | > 100 | 16 | 6.2 | 9.51 | 17.1 | 32.8 | 22.4 |  |
| C#CC1(O)CCC2C3CCc4cc(Oc5nc(F)nc(-c6c7ccccc7c7sc8ccccc8n67)n5)ccc4C3CC[C@@]21C (some centres not stated) | > 100 | > 100 |  | > 100 | > 100 | > 100 | > 100 |  |  |  | 43.7 | > 100 |  |  |  |  |  |  |  |  |
| CCc1cc(Cc2cc(CC)c(NC(=O)C(=O)Cc3ccccn3)c(CC)c2Cl)c(Cl)c(CC)c1NC(=O)C(=O)Cc1ccccn1 | > 100 | > 100 | > 100 | > 100 | > 100 | > 100 | > 100 |  |  |  |  | > 100 | > 100 |  |  |  |  |  |  |  |
| Cc1cccc(NC(=O)Cn2cnc3sc(C(=O)OC(C)C)c(C)c3c2=O)c1 | > 50 | > 50 | 35.9 |  | > 50 | > 50 | > 50 | > 50 | 11.2 |  | 44.6 | > 50 | > 50 | > 50 | 12.3 | > 50 | 20.7 | 26.8 | 19 | > 50 |
| c1ccc(COc2cccc3ccc[n+](Cc4ccccc4)c23)cc1 | > 100 | 34.2 |  | 25.5 |  | 6.34 | 75.2 |  |  |  | 8.02 | 37.9 | 73.7 |  |  |  |  |  |  |  |
| O=C1NCC2(CCN(CCCC3(c4ccc(F)cc4)OCCO3)CC2)N1c1ccccc1 | > 100 | > 100 | > 100 | > 100 | > 100 | > 100 |  |  |  |  | > 100 | > 100 |  |  |  |  |  |  |  |  |
| COc1ccc(/C=C(/C#N)n2nnc3cccc(F)c32)cc1 | > 100 | 3.23 | > 100 | 53.8 | 5.46 | > 100 | 6.87 | 0.949 | 0.78 | 2.87 | > 100 | 17.8 |  | 1.8 | 0.301 | 2.35 | 0.877 |  | 77.8 | 0.546 |
| COc1cc2c3c(n(C)c(=O)c2cc1OC)-c1cc2c(cc1/C3=C\CCCN)OCO2 |  | 7.22 | 2.52 | 31.6 | 13.8 | > 100 | 20.3 |  | 1.06 | 9.33 | 23.4 | 8.15 | > 100 | 3.18 | 0.61 | 1.83 | 2.99 | 41 | 30.5 | 0.696 |
| COC(OC)C(C)CC(=O)N(C)C (configuration not stated) | > 100 | > 100 | > 100 | > 100 | > 100 |  | > 100 |  |  |  |  | > 100 | > 100 |  |  |  |  |  |  |  |
| CCOC(=O)C(=C=C=C(c1ccccc1)c1ccccc1)C(=O)OCC | 15.1 | 31.3 | 36.6 | 37.6 |  | 33.4 | 34.1 |  |  |  |  | 30.6 | 50.3 |  |  |  |  |  |  |  |
| Cc1ccccc1S(=O)(=O)OC1NS(=O)(=O)c2ccccc21 (configuration not stated) |  | > 100 | > 100 |  | > 100 | > 100 | > 100 |  |  |  | > 100 | > 100 | > 100 |  |  |  |  |  |  |  |
| CC1(C)C2CCC(=O)C1CC2 (configuration not stated) | > 100 |  | > 100 | > 100 | > 100 | > 100 | > 100 |  |  |  | > 100 | > 100 | > 100 |  |  |  |  |  |  |  |
| Cc1ccc(NC(=O)c2cc3cc(N=Nc4ccccc4C(=O)O)ccc3oc2=O)cc1 | > 100 |  | > 100 | > 100 | > 100 | 59.4 | > 100 |  |  |  | > 100 | > 100 | > 100 |  |  |  |  |  |  |  |
| OCC#Cc1ccccc1C#Cc1ccccc1 | 39.8 |  | 27.6 | 29.4 | 31.8 | 32 | > 100 | 7.14 | 13.2 | 15 | 69 | 32.8 | 33.9 | 35.2 | 24.1 | 15.5 | 15.9 | 16.6 | 16.2 |  |
| Cn1cnc([N+](=O)[O-])c1Sc1nc2ccccc2[nH]1 | 90.1 | 40.8 | 51 | 78.1 | 26.2 | 34.4 | 51.9 |  |  |  |  | > 100 | 61.8 |  |  |  |  |  |  |  |
